Tests used:
[1] = biological target: T1, IN^PFV-viral DNA interaction (Human spumaretrovirus, UniProt P14350); assay: IN-viral DNA interaction by steady-state fluorescence anisotropy of Fl-DNA with increasing drug concentrations; assay type: binding, prototype foamy virus (PFV); settings: 400 nM IN^PFV, 4 nM Fl-PFV^CAAT, 10 mM Mg2+, up to 20 µM drug; means INSTI did not prevent IN-DNA interactions
T1 construct: The full-length wt IN^PFV, the three single mutants of the catalytic triad; His; made in house; host or cells: E. coli BL21-CodonPlus (DE3)-RIPL
Method: Their incapability to prevent or disrupt IN-viral DNA complexes was consistently observed over the whole concentration range, regardless of the INSTI tested (Supplementary Fig. S7).
(§1) IN^PFV binding to DNA was measured by fluorescence anisotropy on a Beacon Instrument (Panvera, Madison, WI, USA) as previously described[25],[51], using a double-stranded 21-mer Fl-labeled DNA mimicking the PFV U5 LTR end also referred to as DNA#1 in Table 1 (labeled at the 5′-end of the reactive strand). IN binding to Fl-PFV^CAAT (or Fl-DNA#1) was compared to the binding to other DNA sequences (Fl-DNA#8 #9 #13). DNA annealing was obtained by mixing equimolar amounts of complementary strands in buffer A, heating to 85 °C for 5 min and slow cooling to 25 °C. DNA-binding experiments were performed at 25 °C in buffer A.
(§2) Figure S7. Differential effect of INSTI and INBI compounds on the INPFV-viral DNA interaction.
(§3) The formation of IN-DNA complexes was measured by steady-state fluorescence anisotropy using 400 nM INPFV and 4 nM Fl-PFVCAAT (also named Fl-DNA#1) in the presence of 10 mM Mg2+ and […]
(§4) In each plot, the starting r value (≈ 0.20) corresponds to the typical value found at saturating concentrations of IN (see Fig. S6).
(§5) The INBI compound FZ41, a member of the styrylquinoline family of inhibitors, was used as a control […]
(§6) show mean ± SD values from two independent experiments. […]

IN = settings: INSTIs; cited from earlier work
wt IN^PFV (IN; WT) = biological target: T2, wt IN^PFV (IN; WT) (Human spumaretrovirus, UniProt P14350); assay: Inhibition of IN-viral DNA binding by steady-state fluorescence anisotropy of 4 nM Fl-PFV^CAAT with 400 nM IN, 10 mM Mg2+, 25 °C.; assay type: biochemical; settings: n = 2; read-out: IC50 (IN-DNA interaction)
T2 construct: gene pol; full-length, His-tagged, expressed in E. coli BL21-CodonPlus (DE3)-RIPL
Method: as §2, §3, §4, §5, §6, §1

SMILES | r value of Fl-DNA (IN-DNA complex) on increasing INSTI concentration [1] | IC50 values (IN) | IC50 (wt IN^PFV (IN; WT)) [nM]
COc1cc2c(cc1Cc1cccc(Cl)c1F)c(=O)c(C(=O)O)cn2[C@H](CO)C(C)C [EVG, elvitegravir] | remained constant | low-nanomolar range | 
COc1cc(/C=C/c2ccc3ccc(C(=O)O)c(O)c3n2)cc(O)c1O [FZ41, FZ41 (styrylquinoline family INBI compound)] |  |  | ~800
Cc1nnc(C(=O)NC(C)(C)c2nc(C(=O)NCc3ccc(F)cc3)c(O)c(=O)n2C)o1 [RAL, Raltegravir] | remained constant | low-nanomolar range | 

Reference: publication PMC5656594 (Scientific Reports, 2017)
